Measured values as given in PubChem BioAssay AID2060338 (Molecular Pharmacology Branch, DTP, NCI, 2025).
Several values for one entry are separate records, joined by “and”; a condition that tells them apart may be missing. Identical values can stand only once.

Tested on: 556581-035-R-J1-PDC spheroids with HUVEC/MSC, viability
Assay: Anticancer human tumor 556581-035-R-J1-PDC patient-derived ovarian carcinoma cell line growth inhibition [IpAb]
Settings: for viability, T/C: stronger effect = lower value
Procedure, shortened: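 Spheroids of 60% malignant cells, 25% HUVEC and 15% MSC were exposed to targeted agents combined with ipatasertib or abemaciclib. Doses started at or near clinical Cmax (10 microM when unknown) and fell in half-log steps.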

[1] = curve of first compound, second compound 0.1 µM
[2] = curve of first compound, second compound 0.316 µM
[3] = curve of first compound, second compound 1 µM
[4] = curve of first compound, second compound 3.16 µM
[5] = curve of first compound, second compound 10 µM
[6] = second compound 0.1 µM, first compound 0.00316 µM
[7] = second compound 0.1 µM, first compound 0.01 µM
[8] = second compound 0.1 µM, first compound 0.0316 µM
[9] = second compound 0.1 µM, first compound 0.1 µM
[10] = second compound 0.316 µM, first compound 0.00316 µM
[11] = second compound 0.316 µM, first compound 0.01 µM
[12] = second compound 0.316 µM, first compound 0.0316 µM
[13] = second compound 0.316 µM, first compound 0.1 µM
[14] = second compound 1 µM, first compound 0.00316 µM
[15] = second compound 1 µM, first compound 0.01 µM
[16] = second compound 1 µM, first compound 0.0316 µM
[17] = second compound 1 µM, first compound 0.1 µM
[18] = second compound 3.16 µM, first compound 0.00316 µM
[19] = second compound 3.16 µM, first compound 0.01 µM
[20] = second compound 3.16 µM, first compound 0.0316 µM
[21] = second compound 3.16 µM, first compound 0.1 µM
[22] = second compound 10 µM, first compound 0.00316 µM
[23] = second compound 10 µM, first compound 0.01 µM
[24] = second compound 10 µM, first compound 0.0316 µM
[25] = second compound 10 µM, first compound 0.1 µM
[26] = curve of first compound, second compound 0.01 µM
[27] = curve of first compound, second compound 0.0316 µM
[28] = second compound 0.01 µM, first compound 0.0316 µM
[29] = second compound 0.01 µM, first compound 0.1 µM
[30] = second compound 0.01 µM, first compound 0.316 µM
[31] = second compound 0.01 µM, first compound 1 µM
[32] = second compound 0.01 µM, first compound 3.16 µM
[33] = second compound 0.01 µM, first compound 10 µM
[34] = second compound 0.0316 µM, first compound 0.0316 µM
[35] = second compound 0.0316 µM, first compound 0.1 µM
[36] = second compound 0.0316 µM, first compound 0.316 µM
[37] = second compound 0.0316 µM, first compound 1 µM
[38] = second compound 0.0316 µM, first compound 3.16 µM
[39] = second compound 0.0316 µM, first compound 10 µM
[40] = second compound 0.1 µM, first compound 0.316 µM
[41] = second compound 0.1 µM, first compound 1 µM
[42] = second compound 0.1 µM, first compound 3.16 µM
[43] = second compound 0.1 µM, first compound 10 µM
[44] = second compound 0.316 µM, first compound 0.316 µM
[45] = second compound 0.316 µM, first compound 1 µM
[46] = second compound 0.316 µM, first compound 3.16 µM
[47] = second compound 0.316 µM, first compound 10 µM
[48] = second compound 1 µM, first compound 0.316 µM
[49] = second compound 1 µM, first compound 1 µM
[50] = second compound 1 µM, first compound 3.16 µM
[51] = second compound 1 µM, first compound 10 µM
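Note: spheroids exposed to compounds for 7 days before readout.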

SMILES: Cn1ncnc1[C@H]1c2n[nH]c(=O)c3cc(F)cc(c23)N[C@@H]1c1ccc(F)cc1 + CC(C)NCC(C(=O)N1CCN(c2ncnc3c2C(C)CC3O)CC1)c1ccc(Cl)cc1
- IC50 [1]: > 0.1 µM
- IC50 [2]: 0.0943 µM
- IC50 [3]: > 0.1 µM
- IC50 [4]: > 0.1 µM
- IC50 [5]: < 0.000316 µM
- viability, T/C (second compound 0.1 µM, first compound 0.000316 µM): 106%
- viability, T/C (second compound 0.1 µM, first compound 0.001 µM): 93%
- viability, T/C [6]: 88%
- viability, T/C [7]: 86.1%
- viability, T/C [8]: 82.6%
- viability, T/C [9]: 64.2%
- viability, T/C (second compound 0.316 µM, first compound 0.000316 µM): 92.7%
- viability, T/C (second compound 0.316 µM, first compound 0.001 µM): 87.5%
- viability, T/C [10]: 78%
- viability, T/C [11]: 59.7%
- viability, T/C [12]: 67.2%
- viability, T/C [13]: 46.8%
- viability, T/C (second compound 1 µM, first compound 0.000316 µM): 70.6%
- viability, T/C (second compound 1 µM, first compound 0.001 µM): 60%
- viability, T/C [14]: 65.9%
- viability, T/C [15]: 52.2%
- viability, T/C [16]: 65.4%
- viability, T/C [17]: 55.4%
- viability, T/C (second compound 3.16 µM, first compound 0.000316 µM): 51.2%
- viability, T/C (second compound 3.16 µM, first compound 0.001 µM): 54.1%
- viability, T/C [18]: 51.5%
- viability, T/C [19]: 54.8%
- viability, T/C [20]: 44.2%
- viability, T/C [21]: 54.8%
- viability, T/C (second compound 10 µM, first compound 0.000316 µM): 48.6%
- viability, T/C (second compound 10 µM, first compound 0.001 µM): 46.3%
- viability, T/C [22]: 42.9%
- viability, T/C [23]: 35.6%
- viability, T/C [24]: 44.2%
- viability, T/C [25]: 36.2%

SMILES: C=CCn1c(=O)c2cnc(Nc3ccc(N4CCN(C)CC4)cc3)nc2n1-c1cccc(C(C)(C)O)n1
- viability, T/C (compound 0.0316 µM): 102% and 109%
- viability, T/C (compound 0.1 µM): 72.1% and 83.2%
- viability, T/C (compound 0.316 µM): 28.2% and 29.8%
- viability, T/C (compound 1 µM): 39.7% and 41.9%
- viability, T/C (compound 3.16 µM): 50.2% and 42%
- viability, T/C (compound 10 µM): 36.3% and 35.7%
- IC50 (curve of compound): 0.214 µM and 0.23 µM

SMILES: C=CC(=O)N1CCN(c2nc(=O)n(-c3c(C)ccnc3C(C)C)c3nc(-c4c(O)cccc4F)c(F)cc23)C(C)C1 (centres undefined) + CCN1CCN(Cc2ccc(Nc3ncc(F)c(-c4cc(F)c5nc(C)n(C(C)C)c5c4)n3)nc2)CC1
- IC50 [26]: 7.37 µM
- IC50 [27]: 7.29 µM
- IC50 [1]: 7.02 µM
- IC50 [2]: 4.11 µM
- IC50 [3]: 0.143 µM
- viability, T/C [28]: 102%
- viability, T/C [29]: 108%
- viability, T/C [30]: 105%
- viability, T/C [31]: 119%
- viability, T/C [32]: 91%
- viability, T/C [33]: 35.2%
- viability, T/C [34]: 91.2%
- viability, T/C [35]: 107%
- viability, T/C [36]: 104%
- viability, T/C [37]: 107%
- viability, T/C [38]: 108%
- viability, T/C [39]: 29.7%
- viability, T/C [8]: 94.1%
- viability, T/C [9]: 109%
- viability, T/C [40]: 103%
- viability, T/C [41]: 124%
- viability, T/C [42]: 94.4%
- viability, T/C [43]: 30.1%
- viability, T/C [12]: 85.3%
- viability, T/C [13]: 93.3%
- viability, T/C [44]: 108%
- viability, T/C [45]: 106%
- viability, T/C [46]: 56.4%
- viability, T/C [47]: 28.1%
- viability, T/C [16]: 50.1%
- viability, T/C [17]: 50.2%
- viability, T/C [48]: 51.6%
- viability, T/C [49]: 42%
- viability, T/C [50]: 34.2%
- viability, T/C [51]: 17.6%

SMILES: CCCS(=O)(=O)Nc1ccc(F)c(C(=O)c2c[nH]c3ncc(-c4ccc(Cl)cc4)cc23)c1F + CCN1CCN(Cc2ccc(Nc3ncc(F)c(-c4cc(F)c5nc(C)n(C(C)C)c5c4)n3)nc2)CC1
- IC50 [26]: > 10 µM
- IC50 [27]: > 10 µM
- IC50 [1]: > 10 µM
- IC50 [2]: > 10 µM
- IC50 [3]: > 10 µM
- viability, T/C [28]: 114%
- viability, T/C [29]: 106%
- viability, T/C [30]: 123%
- viability, T/C [31]: 116%
- viability, T/C [32]: 129%
- viability, T/C [33]: 71.9%
- viability, T/C [34]: 99%
- viability, T/C [35]: 97.2%
- viability, T/C [36]: 109%
- viability, T/C [37]: 104%
- viability, T/C [38]: 110%
- viability, T/C [39]: 60.9%
- viability, T/C [8]: 128%
- viability, T/C [9]: 113%
- viability, T/C [40]: 123%
- viability, T/C [41]: 104%
- viability, T/C [42]: 100%
- viability, T/C [43]: 61%
- viability, T/C [12]: 105%
- viability, T/C [13]: 98.4%
- viability, T/C [44]: 99.1%
- viability, T/C [45]: 93.9%
- viability, T/C [46]: 77.6%
- viability, T/C [47]: 57.6%
- viability, T/C [16]: 67.7%
- viability, T/C [17]: 54.9%
- viability, T/C [48]: 73.1%
- viability, T/C [49]: 61%
- viability, T/C [50]: 57.2%
- viability, T/C [51]: 59.8%

SMILES: COc1c(OCCCN2CCOCC2)ccc2c3n(c(=NC(=O)c4cnc(N)nc4)nc12)CCN3 + CC(C)NCC(C(=O)N1CCN(c2ncnc3c2C(C)CC3O)CC1)c1ccc(Cl)cc1
- IC50 [1]: 0.0254 µM
- IC50 [2]: 0.0316 µM
- IC50 [3]: 0.019 µM
- IC50 [4]: 0.0139 µM
- IC50 [5]: 0.00333 µM
- viability, T/C [6]: 73.8%
- viability, T/C [7]: 61.1%
- viability, T/C [8]: 45.6%
- viability, T/C [9]: 36.1%
- viability, T/C [40]: 16.5%
- viability, T/C [41]: 3.99%
- viability, T/C [10]: 91.6%
- viability, T/C [11]: 62.8%
- viability, T/C [12]: 55.1%
- viability, T/C [13]: 31.5%
- viability, T/C [44]: 15.6%
- viability, T/C [45]: 2.82%
- viability, T/C [14]: 64.1%
- viability, T/C [15]: 57%
- viability, T/C [16]: 42%
- viability, T/C [17]: 36.3%
- viability, T/C [48]: 14.6%
- viability, T/C [49]: 2.64%
- viability, T/C [18]: 50.2%
- viability, T/C [19]: 45.2%
- viability, T/C [20]: 55.3%
- viability, T/C [21]: 39.3%
- viability, T/C (second compound 3.16 µM, first compound 0.316 µM): 11.8%
- viability, T/C (second compound 3.16 µM, first compound 1 µM): 5.41%
- viability, T/C [22]: 52%
- viability, T/C [23]: 42.8%
- viability, T/C [24]: 38.5%
- viability, T/C [25]: 33.6%
- viability, T/C (second compound 10 µM, first compound 0.316 µM): 14.7%
- viability, T/C (second compound 10 µM, first compound 1 µM): 5.1%

SMILES: Cc1nc(NC(=O)N2CCCC2C(N)=O)sc1-c1ccnc(C(C)(C)C(F)(F)F)c1 (centres undefined) + CCN1CCN(Cc2ccc(Nc3ncc(F)c(-c4cc(F)c5nc(C)n(C(C)C)c5c4)n3)nc2)CC1
- IC50 [26]: 0.388 µM
- IC50 [27]: 0.274 µM
- IC50 [1]: 0.401 µM
- IC50 [2]: < 0.0316 µM
- IC50 [3]: < 0.0316 µM
- viability, T/C [28]: 87.3%
- viability, T/C [29]: 65.6%
- viability, T/C [30]: 47.3%
- viability, T/C [31]: 39.6%
- viability, T/C [32]: 33.2%
- viability, T/C [33]: 10.3%
- viability, T/C [34]: 70.4%
- viability, T/C [35]: 58.8%
- viability, T/C [36]: 42.9%
- viability, T/C [37]: 42%
- viability, T/C [38]: 27.5%
- viability, T/C [39]: 9.58%
- viability, T/C [8]: 67.8%
- viability, T/C [9]: 62%
- viability, T/C [40]: 52.7%
- viability, T/C [41]: 39.5%
- viability, T/C [42]: 25.2%
- viability, T/C [43]: 7.2%
- viability, T/C [12]: 46.7%
- viability, T/C [13]: 47.9%
- viability, T/C [44]: 40.8%
- viability, T/C [45]: 36.7%
- viability, T/C [46]: 31.2%
- viability, T/C [47]: 11.3%
- viability, T/C [16]: 48.9%
- viability, T/C [17]: 37.9%
- viability, T/C [48]: 39%
- viability, T/C [49]: 30.2%
- viability, T/C [50]: 20.2%
- viability, T/C [51]: 9%

SMILES: Cn1ncnc1[C@H]1c2n[nH]c(=O)c3cc(F)cc(c23)N[C@@H]1c1ccc(F)cc1
- viability, T/C (compound 0.000316 µM): 120% and 97.9%
- viability, T/C (compound 0.001 µM): 106% and 94.6%
- viability, T/C (compound 0.00316 µM): 91.1% and 85.3%
- viability, T/C (compound 0.01 µM): 76.8% and 86.8%
- viability, T/C (compound 0.0316 µM): 73.8% and 78.4%
- viability, T/C (compound 0.1 µM): 68% and 62.8%
- IC50 (curve of compound): > 0.1 µM
